# Test results from the RepoRT retention time repository (doi:10.1007/s11306-011-0298-z).
# Assay: RP, Waters ACQUITY UPLC HSS T3, 100 × 2.1 mm, 1.8 µm, 30 °C, 0.3 mL/min, estimated dead time 0.73 min; A: water + 0.1% formic acid, pH 3; B: methanol + 0.1% formic acid, pH 3; gradient (min/%B) 0/0 6/0 56/100 60/100
# Conditions: stereoisomer not certain
row,Structure (SMILES),LC retention time [min]
1,O=C(O)C1(O)CC(O)C(O)C(O)C1 (configuration not stated) [quinic acid],1.6
2,OCC1OC(OCC2OC(OC3(CO)OC(CO)C(O)C3O)C(O)C(O)C2O)C(O)C(O)C1O (configuration not stated) [raffinose],2.6
3,CC1OC(O)C(O)C(O)C1O (configuration not stated) [rhamnose],1.57
4,CC1OC(OCC2OC(Oc3c(-c4ccc(O)cc4)oc4cc(OC5OC(C)C(O)C(O)C5O)cc(O)c4c3=O)C(O)C(O)C2O)C(O)C(O)C1O (configuration not stated) [robinin],28.6
5,C=CC(C)(O)CCC1C(C)(O)CCC2C(C)(C)CCCC21C (configuration not stated) [sclareol],50.1
6,NCCc1c[nH]c2ccc(O)cc12 [serotonin],11.1
7,CC=CC=CC(=O)O [sorbic acid],25.1
8,NCCCCNCCCN [spermidine],1.04
9,NCCCNCCCCNCCCN [spermine],0.98
10,OCC1OC(OCC2OC(OCC3OC(OC4(CO)OC(CO)C(O)C4O)C(O)C(O)C3O)C(O)C(O)C2O)C(O)C(O)C1O (configuration not stated) [stachyose],2.4
11,O=C(O)CCC(=O)O [succinic acid],4.97
12,OCC1OC(OC2(CO)OC(CO)C(O)C2O)C(O)C(O)C1O (configuration not stated) [sucrose],1.9
13,COc1cc(C=NN=Cc2cc(OC)c(O)c(OC)c2)cc(OC)c1O [syringaldazine],35.5
14,COc1cc(-c2oc3cc(O)cc(O)c3c(=O)c2OC2OC(CO)C(O)C(O)C2O)cc(OC)c1O (configuration not stated) [syringetin-3-galactoside],31.6
15,CC(CCC(=O)NCCS(=O)(=O)O)C1CCC2C3C(O)CC4CC(O)CCC4(C)C3CC(O)C12C (configuration not stated) [taurocholic acid],42.3
16,CC(C)(C)c1cc(O)ccc1O [tert-butylhydroquinone],30.5
17,O=C(O)C(O)C(O)CO (configuration not stated) [threonic acid],1.45
18,O=CC(O)C(O)CO (configuration not stated) [threose],1.47
19,O=C(C=Cc1ccc(O)cc1)OC(C(=O)O)C(O)C(=O)O (stereo not drawn) [trans coutaric acid],18
20,CC1(O)CCC(C(C)(C)O)CC1 (stereo not drawn) [trans-terpin],27.9
21,C[n+]1cccc(C(=O)[O-])c1 [trigonelline],1.67
22,NCCc1ccc(O)cc1 [tyramine],6.2
23,OCCc1ccc(O)cc1 [tyrosol],17.5
24,NC(N)=O [urea],1.3
25,CCOC(N)=O [urethane],7.1
26,CC1CCC2(C(=O)O)CCC3(C)C(=CCC4C5(C)CCC(O)C(C)(C)C5CCC43C)C2C1C (configuration not stated) [ursolic acid],53.6
27,Oc1ccc(C2Oc3cc(O)c4c(c3C2c2cc(O)cc(O)c2)C2c3c(O)cc5c(c3C(C4c3ccc(O)cc3)C2c2ccc(O)cc2)C(c2cc(O)cc(O)c2)C(c2ccc(O)cc2)O5)cc1 (stereo not drawn) [vaticanol C like isomer],29
28,COc1cc(-c2oc3cc(=O)cc4oc(C(=O)O)cc(c2OC2OC(CO)C(O)C(O)C2O)c43)cc(OC)c1O (configuration not stated) [vitisin A],28.3
29,COc1cc(-c2oc3cc(=O)cc4occc(c2OC2OC(CO)C(O)C(O)C2O)c43)cc(OC)c1O (configuration not stated) [vitisin B],27
30,OC1COC(O)C(O)C1O (configuration not stated) [xylose],1.4

# Further lines, results first:
row,LC retention time [min],Structure (SMILES)
1,31.1,CC1OC(Oc2c(-c3ccc(O)c(O)c3)oc3cc(O)cc(O)c3c2=O)C(O)C(O)C1O (configuration not stated) [quercitrin]
2,42.2,COc1cc(O)c2c(=O)c(O)c(-c3ccc(O)c(OC)c3)oc2c1 [rhamnazin]
3,38.9,COc1cc(O)c2c(=O)c(O)c(-c3ccc(O)c(O)c3)oc2c1 [rhamnetin]
4,23.9,Cc1cc2nc3c(=O)[nH]c(=O)nc-3n(CC(O)C(O)C(O)CO)c2cc1C (configuration not stated) [riboflavin]
5,30,O=C(C=Cc1ccc(O)c(O)c1)OC(Cc1ccc(O)c(O)c1)C(=O)O (configuration not stated) [rosmarinic acid]
6,39,COc1cc(O)c2c(c1)OC(c1ccc(O)cc1)CC2=O (configuration not stated) [sakuranetin]
7,26.4,O=C(O)c1ccccc1O [salicylic acid]
8,24.6,COc1cc2ccc(=O)oc2cc1O [scopoletin]
9,25.9,COc1cc(/C=C/C(=O)O)cc(OC)c1O [sinapic acid]
10,23.6,COc1cc(/C=C/CO)cc(OC)c1O [sinapyl alcohol]
11,39.3,COc1ccc(-c2cc(=O)c3c(OC)c(OC)c(OC)cc3o2)cc1OC [sinensetin]
12,23.5,COc1cc(C=O)cc(OC)c1O [syringaldehyde]
13,37.4,COc1cc(-c2oc3cc(O)cc(O)c3c(=O)c2O)cc(OC)c1O [syringetin]
14,21.9,COc1cc(C(=O)O)cc(OC)c1O [syringic acid]
15,25.3,O=C1c2c(O)cc(O)cc2OC(c2ccc(O)c(O)c2)C1O (configuration not stated) [taxifolin]
16,15.3,Cn1cnc2c1c(=O)[nH]c(=O)n2C [theobromine]
17,17.8,Cn1c(=O)c2[nH]cnc2n(C)c1=O [theophylline]
18,1.6,Cc1ncc(C[n+]2csc(CCO)c2C)c(N)n1 [thiamine]
19,26.2,OCCc1c[nH]c2ccccc12 [trypthophol]
20,23.9,O=c1ccc2ccc(O)cc2o1 [umbelliferone]
21,2.98,O=c1cc[nH]c(=O)[nH]1 [uracil]
22,1.62,O=c1[nH]c(=O)c2[nH]c(=O)[nH]c2[nH]1 [uric acid]
23,7,O=c1ccn(C2OC(CO)C(O)C2O)c(=O)[nH]1 (configuration not stated) [uridine]
24,20.3,COc1cc(C(=O)O)ccc1O [vanillic acid]
25,21.5,COc1cc(C=O)ccc1O [vanillin]
26,57.7,CC(=CCC1=C(C)C(=O)c2ccccc2C1=O)CCCC(C)CCCC(C)CCCC(C)C (configuration not stated) [vitamin K1]
27,6.01,O=c1[nH]c(=O)c2[nH]cnc2[nH]1 [xanthine]
